{"source": "ChEMBL document CHEMBL1134325", "about": "“Diaminoindanes as microsomal triglyceride transfer protein inhibitors” (J Med Chem, 2001)", "data": [{"target": "T1, Microsomal triglyceride transfer protein large subunit (Homo sapiens, UniProt P55157)", "T1 sequence (P55157 whole entry)": "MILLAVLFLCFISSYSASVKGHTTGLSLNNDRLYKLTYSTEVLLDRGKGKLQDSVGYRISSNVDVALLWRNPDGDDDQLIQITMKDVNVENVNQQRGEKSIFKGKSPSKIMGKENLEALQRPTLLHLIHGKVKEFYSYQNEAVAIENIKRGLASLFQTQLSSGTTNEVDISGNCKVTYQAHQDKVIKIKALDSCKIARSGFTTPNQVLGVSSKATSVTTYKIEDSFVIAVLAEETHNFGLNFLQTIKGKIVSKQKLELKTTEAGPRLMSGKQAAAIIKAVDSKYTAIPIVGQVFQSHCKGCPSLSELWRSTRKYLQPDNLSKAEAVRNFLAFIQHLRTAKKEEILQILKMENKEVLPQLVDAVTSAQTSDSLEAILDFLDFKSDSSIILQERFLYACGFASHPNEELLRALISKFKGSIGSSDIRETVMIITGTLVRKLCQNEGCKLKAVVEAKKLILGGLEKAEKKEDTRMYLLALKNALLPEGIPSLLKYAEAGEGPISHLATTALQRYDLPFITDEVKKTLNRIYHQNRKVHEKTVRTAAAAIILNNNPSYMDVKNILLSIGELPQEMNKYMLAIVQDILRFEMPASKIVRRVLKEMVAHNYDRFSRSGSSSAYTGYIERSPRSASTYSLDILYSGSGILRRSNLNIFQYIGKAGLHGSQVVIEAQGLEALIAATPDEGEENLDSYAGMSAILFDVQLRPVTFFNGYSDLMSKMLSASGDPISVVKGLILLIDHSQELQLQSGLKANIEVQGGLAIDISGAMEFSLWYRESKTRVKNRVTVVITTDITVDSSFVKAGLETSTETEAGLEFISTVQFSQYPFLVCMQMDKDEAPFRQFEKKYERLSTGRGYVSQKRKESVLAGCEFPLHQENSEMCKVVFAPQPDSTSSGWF", "test": "In vitro inhibitory activity against MTP using MTP transfer assay", "units": {"IC50": "nM"}, "values": [{"smiles": "COC(=O)NC1CCc2ccc(NC(=O)c3cccc(C)c3-c3ccc(Cl)cc3)cc2CC1", "note": "(stereo not given)", "IC50": 80}, {"smiles": "COC(=O)N[C@@H]1Cc2ccc(NC(=O)c3cc(C)cc(C)c3-c3ccc(C(F)(F)F)cc3)cc2C1", "IC50": 90}, {"smiles": "COC(=O)NCC1Cc2ccc(NC(=O)c3cc(C)cc(C)c3-c3ccc(C(F)(F)F)cc3)cc2C1", "note": "(stereo not given)", "IC50": 40}, {"smiles": "Cc1cccc(C(=O)Nc2ccc3c(c2)CCC(NS(=O)(=O)c2cccs2)CC3)c1-c1ccc(C(F)(F)F)cc1", "note": "(stereo not given)", "IC50": 140}, {"smiles": "CN(C)C(=O)NC1Cc2ccc(NC(=O)c3ccccc3-c3ccc(C(F)(F)F)cc3)cc2C1", "note": "(stereo not given)", "IC50": 80}, {"smiles": "Cc1cccc(C(=O)Nc2ccc3c(c2)CC(NS(=O)(=O)c2ccccc2)C3)c1-c1ccc(F)cc1", "note": "(stereo not given)", "IC50": 240}, {"smiles": "Cc1cccc(C(=O)Nc2ccc3c(c2)CC(NS(C)(=O)=O)C3)c1-c1ccc(Cl)cc1", "note": "(stereo not given)", "IC50": 100}, {"smiles": "COC(=O)N[C@H]1Cc2ccc(NC(=O)c3cccc(C(F)(F)F)c3-c3ccc(C(F)(F)F)cc3)cc2C1", "IC50": 50}, {"smiles": "CC(=O)NC1Cc2ccc(NC(=O)c3ccccc3-c3ccc(C(F)(F)F)cc3)cc2C1", "note": "(stereo not given)", "IC50": 80}, {"smiles": "Cc1ccc(-c2c(C)cccc2C(=O)Nc2ccc3c(c2)CC(NS(=O)(=O)c2ccccc2)C3)cc1", "note": "(stereo not given)", "IC50": 93}, {"smiles": "Cc1cccc(C(=O)Nc2ccc3c(c2)CC(NS(C)(=O)=O)C3)c1-c1ccc(F)cc1", "note": "(stereo not given)", "IC50": 170}, {"smiles": "COC(=O)N[C@@H]1Cc2ccc(NC(=O)c3ccccc3-c3ccc(C(F)(F)F)cc3)cc2C1", "IC50": 110}, {"smiles": "O=C(Nc1ccc2c(c1)CC(NS(=O)(=O)c1ccccc1)C2)c1ccccc1-c1ccccc1", "note": "(stereo not given)", "IC50": 710}, {"smiles": "Cc1cccc(C(=O)Nc2ccc3c(c2)CC(NS(=O)(=O)c2ccccc2)C3)c1-c1ccc(Cl)cc1", "note": "(stereo not given)", "IC50": 100}, {"smiles": "Cc1cccc(C(=O)Nc2ccc3c(c2)CC(NS(=O)(=O)c2ccccc2)C3)c1-c1ccc(C#N)cc1", "note": "(stereo not given)", "IC50": 120}, {"smiles": "O=C(NC1Cc2ccc(NC(=O)c3ccccc3-c3ccc(C(F)(F)F)cc3)cc2C1)c1ccccc1", "note": "(stereo not given)", "IC50": "> 1000"}, {"smiles": "Cc1cccc(C(=O)Nc2ccc3c(c2)CC(CNS(=O)(=O)c2cccs2)C3)c1-c1ccc(C(F)(F)F)cc1", "note": "(stereo not given)", "IC50": 14}, {"smiles": "COC(=O)NCC1Cc2ccc(NC(=O)c3cccc(C)c3-c3ccc(Cl)cc3)cc2C1", "note": "(stereo not given)", "IC50": 100}, {"smiles": "Cc1cccc(C(=O)Nc2ccc3c(c2)CCC(NS(C)(=O)=O)CC3)c1-c1ccc(Cl)cc1", "note": "(stereo not given)", "IC50": 90}, {"smiles": "COC(=O)NC1Cc2ccc(NC(=O)c3cc(C)cc(C)c3-c3ccc(Cl)cc3)cc2C1", "note": "(stereo not given)", "IC50": 120}, {"smiles": "COC(=O)N[C@H]1Cc2ccc(NC(=O)c3cc(C(F)(F)F)ccc3-c3ccc(C(F)(F)F)cc3)cc2C1", "IC50": 410}, {"smiles": "COc1cccc(C(=O)Nc2ccc3c(c2)CC(NS(=O)(=O)c2ccccc2)C3)c1-c1ccc(Cl)cc1", "note": "(stereo not given)", "IC50": 110}, {"smiles": "Cc1cccc(C(=O)Nc2ccc3c(c2)CC(CNS(C)(=O)=O)C3)c1-c1ccc(C(F)(F)F)cc1", "note": "(stereo not given)", "IC50": 150}, {"smiles": "Cc1cccc(C(=O)Nc2ccc3c(c2)CC(NS(=O)(=O)c2cccs2)C3)c1-c1ccc(Cl)cc1", "note": "(stereo not given)", "IC50": 120}, {"smiles": "COC(=O)N[C@H]1Cc2ccc(NC(=O)c3cc(C)cc(C)c3-c3ccc(C(F)(F)F)cc3)cc2C1", "IC50": 70}, {"smiles": "COc1cccc(C(=O)Nc2ccc3c(c2)CC(NS(C)(=O)=O)C3)c1-c1ccc(Cl)cc1", "note": "(stereo not given)", "IC50": 70}, {"smiles": "Cc1cccc(C(=O)Nc2ccc3c(c2)CC(NS(=O)(=O)c2cccs2)C3)c1-c1ccc(F)cc1", "note": "(stereo not given)", "IC50": 50}, {"smiles": "CS(=O)(=O)NC1Cc2ccc(NC(=O)c3ccccc3-c3ccc(C(F)(F)F)cc3)cc2C1", "note": "(stereo not given)", "IC50": 120}, {"smiles": "O=C(Nc1ccc2c(c1)CC(NCc1ccccc1)C2)c1ccccc1-c1ccc(C(F)(F)F)cc1", "note": "(stereo not given)", "IC50": 4800}, {"smiles": "Cc1cccc(C(=O)Nc2ccc3c(c2)CC(CNS(C)(=O)=O)C3)c1-c1ccc(Cl)cc1", "note": "(stereo not given)", "IC50": 500}]}]}
